{"source": "patent US20240173283A1", "about": "“PROPHYLACTIC AGENT OR THERAPEUTIC AGENT FOR SIDE EFFECTS OF ANTHRACYCLINE ANTICANCER AGENT” (Kyushu University, National University Corporation, priority 2021, published 2024)", "key": {"[1]": {"system": "mitochondrial heme in rat primary cardiomyocytes", "assay": "Mitochondrial heme (QuantiChrom Heme Assay Kit) in cardiomyocytes", "format": "cell-based", "conditions": "FIG. 8C"}, "[2]": {"system": "acrolein in myocardial tissues", "assay": "Acrolein western blot of myocardial tissues, doxorubicin cardiomyopathy model", "conditions": "day 14, FIG. 4", "text": "(§1) The obtained image was quantitatively analyzed in image J (NIH). GAPDH (Santa Cruz Biotechnology Inc., sc-32233) was used as an internal control."}, "[3]": {"system": "Hela cells (human uterine cervical cancer cells)", "assay": "Cell death evaluation assay (Cell Counting Kit-F) in Hela cells", "format": "cell-based", "conditions": "24 hours, FIG. 10B", "protocol": "5′-ALA (1 mM) was added to Hela cells (human uterine cervical cancer cells), and doxorubicin (2 μM) was added thereto 1 hour later. […] The obtained results were normalized with those of the control group defined as 1, and presented as data."}, "Primary cardiomyocytes [4]": {"system": "Primary cardiomyocytes", "assay": "Cell death evaluation assay (Cell Counting Kit-F) in doxorubicin-treated primary cardiomyocytes", "format": "cell-based, rat", "conditions": "FIG. 2", "protocol": "(§2) Primary cardiomyocytes were isolated by trypsin and collagenase treatment of the heart harvested from a neonatal rat, and inoculated onto a petri dish. After culture for several days, the culture medium was replaced with a serum-free medium (DMEM), and 2 μM (final concentration) doxorubicin was added from 24 hours later in the serum-free medium. Aminolevulinic acid (5′-ALA, 1 mM) or ferrostatin-1 (Fer-1, 50 μM) was added 1 hour before doxorubicin addition."}, "[5]": {"system": "mitochondrial heme in myocardial tissues", "assay": "Mitochondrial heme (QuantiChrom Heme Assay Kit) in mouse heart tissues", "conditions": "day 14, FIG. 9B"}, "[6]": {"system": "mitochondrial iron in rat primary cardiomyocytes", "assay": "Mito-FerroGreen fluorescent staining of mitochondrial iron in cardiomyocytes", "format": "cell-based", "conditions": "FIGS. 8A and 8B", "procedure": "5′-ALA (1 mM) was added to isolated rat primary cardiomyocytes, and doxorubicin (2 M) was added from 1 hour later. The cells were washed once with PBS 24 hours after doxorubicin addition and cultured for 30 minutes in a medium supplemented with Mito-FerroGreen (5 µM) for fluorescent staining of mitochondrial iron. The cells were washed with PBS again and then observed under a fluorescence microscope (BZ-X800, Keyence Corp.) (FIG. 8A). The signal intensity of the obtained image was quantitatively analyzed in image J (NIH)."}, "[7]": {"system": "doxorubicin cardiomyopathy model", "assay": "Echocardiography in doxorubicin cardiomyopathy model", "format": "in vivo, mouse", "conditions": "FIG. 3"}, "Primary cardiomyocytes [8]": {"system": "Primary cardiomyocytes", "assay": "Cell death evaluation assay in primary cardiomyocytes with various anthracycline anticancer agents", "format": "cell-based, rat", "conditions": "5′-ALA 1 mM added 2 hours before DOX, DNR, THP, IDR or EPI (1 or 2 μM); 26 hours after addition; FIG. 5", "procedure": "Primary cardiomyocytes were isolated by trypsin and collagenase treatment of the heart harvested from a neonatal rat, and inoculated onto a petri dish. After culture for several days, the culture medium was replaced with a serum-free medium (DMEM), and doxorubicin (DOX; 1 or 2 μM), daunorubicin (DNR; 1 or 2 μM), pirarubicin (THP; 1 or 2 μM), idarubicin (IDR; 1 or 2 μM), or epirubicin (EPI; 1 or 2 μM) was added (final concentrations for all) from 24 hours later in the serum-free medium. Aminolevulinic acid (5′-ALA, 1 mM) was added 2 hours before doxorubicin addition. […] The obtained results were normalized with those of the control group defined as 1, and presented as data."}, "[9]": {"system": "malondialdehyde (MDA) in myocardial tissues", "assay": "MDA (TBARS assay) in myocardial tissues, doxorubicin cardiomyopathy model", "conditions": "day 14, FIG. 4"}, "[10]": {"system": "EL-4 cells (mouse malignant lymphoma cells)", "assay": "Cell survival evaluation by Trypan Blue staining in EL-4 cells", "format": "cell-based", "conditions": "24 hours, FIG. 10A", "protocol": "5′-ALA (1 mM) was added to EL-4 cells (mouse malignant lymphoma cells), and doxorubicin (1 μM) was added thereto 1 hour later. The cells were collected 24 hours after doxorubicin addition, and dead cells were stained by Trypan Blue staining. The numbers of live cells and dead cells were counted in an automatic cell counter (Countess II FL, Thermo Fisher Scientific Inc.). Cell survival evaluation was conducted from the ratio (%) of the number of live cells to the total number of cells."}, "[11]": {"system": "iron in myocardial tissues", "assay": "Mitochondrial total iron (ferrozine method) in mouse heart tissues", "conditions": "day 14, FIG. 9A"}, "Primary cardiomyocytes [12]": {"system": "Primary cardiomyocytes", "assay": "Malondialdehyde (MDA) measurement by TBARS assay in doxorubicin-treated primary cardiomyocytes", "format": "cell-based, rat", "conditions": "FIG. 1", "protocol": "as §2, with “medium, and cardiomyocytes were lysed with a RIPA buffer and collected 24 hours after doxorubicin addition.” for “medium.”, “µM)” for “μM)”"}, "protoporphyrin IX (PpIX)": {"system": "protoporphyrin IX (PpIX)", "assay": "Protoporphyrin IX measurement by mass spectrometer in cardiomyocytes", "format": "cell-based, rat", "conditions": "doxorubicin 2 μM, 24 hours; FIG. 7", "protocol": "After doxorubicin (2 μM, 24 hours) addition to isolated rat primary cardiomyocytes, the cells were collected with PBS. 50% acetic acid and a dimethylformamide (DMF)/2-propanol (IPA) mixed solution were added to the collected sample, and the mixture was vigorously mixed by vortex. After centrifugation, a supernatant was recovered (supernatant 1), and a DMF/IPA mixed solution was added again to pellets, followed by centrifugation again. The supernatant thus obtained by centrifugation (supernatant 2) and the supernatant 1 were combined and used as protoporphyrin IX extracts. Acetonitrile was added to the extracts, and the mixture was deproteinized and then centrifuged at 20000 g for 20 minutes. Then, a supernatant was applied to a mass spectrometer (column: 1.8 UM, 2.1×100 mm; Waters, MA, USA, measurement equipment: Q Exactive Ultimate 3000; Thermo Fisher Scientific Inc.) to measure protoporphyrin IX (PPIX) in the cardiomyocytes."}, "ALAS1 [13]": {"system": "ALAS1", "assay": "Alas1 western blot in mouse heart tissues", "format": "in vivo", "conditions": "doxorubicin 6 mg/kg/dose, days 0, 2, 4; day 7; GAPDH internal control; FIG. 6B", "text": "as §1"}, "ALAS1 [14]": {"system": "ALAS1", "assay": "Alas1 western blot in rat primary cardiomyocytes", "format": "cell-based", "conditions": "doxorubicin 2 μM, 24 hours; β-Actin internal control; FIG. 6A", "text": "The obtained image was quantitatively analyzed in image J (NIH). β-Actin (Santa Cruz Biotechnology Inc., sc-47778) was used as an internal control."}, "[15]": {"conditions": "5′-ALA 1 mM added 1 hour before doxorubicin 2 μM, 24 hours after doxorubicin"}, "[16]": {"conditions": "5′-ALA 300 mg/kg/day in drinking water from 3 days before doxorubicin"}, "[17]": {"conditions": "5′-ALA oral 300 mg/kg/day in drinking water from 3 days before initial doxorubicin"}, "[18]": {"conditions": "doxorubicin 6 mg/kg/dose, days 0, 2, 4"}}}
{"smiles": "NCC(=O)CCC(=O)O", "note": "[5′-ALA, 5-aminolevulinic acid]", "values": [{"measurement": "mitochondrial heme in cardiomyocytes", "setting": "[1]; [15]", "value": "the disorder is normalized"}, {"measurement": "lipid peroxide (acrolein) level in myocardial tissues", "setting": "[2]; [16]", "value": "significantly suppressed increase in lipid peroxide (acrolein and MDA) levels"}, {"measurement": "attenuation of cell death-inducing effect of doxorubicin in Hela cells", "setting": "[3]; 5′-ALA 1 mM added 1 hour before doxorubicin 2 μM", "value": "the effects were not attenuated"}, {"measurement": "cell death (ferroptosis) of cardiomyocytes", "setting": "Primary cardiomyocytes [4]; 5′-ALA 1 mM added 1 hour before 2 μM doxorubicin, 24 hours after doxorubicin", "value": "suppressed the cell death (ferroptosis) of cardiomyocytes"}, {"measurement": "mitochondrial heme in myocardial tissues", "setting": "[5]; [17]", "value": "the disorder is normalized"}, {"measurement": "mitochondrial iron in cardiomyocytes (Mito-FerroGreen signal intensity)", "setting": "[6]; [15]", "value": "the iron excess state is normalized"}, {"measurement": "left ventricular contractility (left ventricular ejection fraction, LVEF)", "setting": "[7]; 5′-ALA 300 mg/kg/day in drinking water from 3 days before doxorubicin (6 mg/kg/dose, days 0, 2, 4, tail vein), echocardiography 7 and 14 days", "value": "significantly improved reduction in left ventricular contractility"}, {"measurement": "cell death of cardiomyocytes", "setting": "Primary cardiomyocytes [8]", "value": "suppressed the cell death of cardiomyocytes in all the administration groups"}, {"measurement": "lipid peroxide (MDA) level in myocardial tissues", "setting": "[9]; [16]", "value": "significantly suppressed increase in lipid peroxide (acrolein and MDA) levels"}, {"measurement": "attenuation of cell death-inducing effect of doxorubicin in EL-4 cells", "setting": "[10]; 5′-ALA 1 mM added 1 hour before doxorubicin 1 μM", "value": "the effects were not attenuated"}, {"measurement": "total amount of iron in heart mitochondria (myocardial tissues)", "setting": "[11]; [17]", "value": "the iron excess state is normalized"}, {"measurement": "lipid peroxide level (MDA) in cardiomyocytes", "setting": "Primary cardiomyocytes [12]; 5′-ALA 1 mM added 1 hour before 2 μM doxorubicin, collected 24 hours after doxorubicin", "value": "suppressed increase in lipid peroxide level"}]}
{"smiles": "COc1cccc2c1C(=O)c1c(O)c3c(c(O)c1C2=O)C[C@@](O)(C(=O)CO)C[C@@H]3O[C@H]1C[C@H](N)[C@H](O)[C@H](C)O1", "note": "[doxorubicin]", "values": [{"measurement": "level of protoporphyrin IX (PpIX) in cardiomyocytes", "setting": "protoporphyrin IX (PpIX)", "value": "decreased"}, {"measurement": "level of ALAS1 in myocardial tissues", "setting": "ALAS1 [13]", "value": "decreased"}, {"measurement": "mitochondrial heme in cardiomyocytes", "setting": "[1]; doxorubicin 2 μM, 24 hours", "value": "a heme synthesis disorder is induced"}, {"measurement": "lipid peroxide (acrolein) level in myocardial tissues", "setting": "[2]; [18]", "value": "increase in lipid peroxide (acrolein and MDA) levels"}, {"measurement": "cell death-inducing effect in Hela cells", "setting": "[3]; doxorubicin 2 μM", "value": "a cell death-inducing effects, which are the drug efficacy of doxorubicin, were observed"}, {"measurement": "cell death (ferroptosis) of cardiomyocytes", "setting": "Primary cardiomyocytes [4]; doxorubicin 2 μM, 24 hours", "value": "cell death (ferroptosis) of cardiomyocytes induced by doxorubicin"}, {"measurement": "level of ALAS1 in cardiomyocytes", "setting": "ALAS1 [14]", "value": "decreased"}, {"measurement": "mitochondrial heme in myocardial tissues", "setting": "[5]; [18]", "value": "heme synthesis disorder is induced"}, {"measurement": "mitochondrial iron in cardiomyocytes (Mito-FerroGreen signal intensity)", "setting": "[6]; doxorubicin 2 μM, 24 hours", "value": "an iron excess state occurs"}, {"measurement": "left ventricular contractility (left ventricular ejection fraction, LVEF)", "setting": "[7]; doxorubicin 6 mg/kg/dose, days 0, 2, 4, tail vein", "value": "reduction in left ventricular contractility"}, {"measurement": "lipid peroxide (MDA) level in myocardial tissues", "setting": "[9]; [18]", "value": "increase in lipid peroxide (acrolein and MDA) levels"}, {"measurement": "cell death-inducing effect in EL-4 cells (ratio of live cells to total cells)", "setting": "[10]; doxorubicin 1 μM", "value": "a cell death-inducing effects, which are the drug efficacy of doxorubicin, were observed"}, {"measurement": "total amount of iron in heart mitochondria (myocardial tissues)", "setting": "[11]; [18]", "value": "an iron excess state is induced"}, {"measurement": "lipid peroxide level (MDA) in cardiomyocytes", "setting": "Primary cardiomyocytes [12]; doxorubicin 2 μM, 24 hours", "value": "increase in lipid peroxide level in cardiomyocytes"}]}
{"smiles": "CCOC(=O)c1ccc(NC2CCCCC2)c(N)c1", "note": "[Fer-1, ferrostatin-1]", "values": [{"measurement": "cell death (ferroptosis) of cardiomyocytes", "setting": "Primary cardiomyocytes [4]; Fer-1 50 μM added 1 hour before 2 μM doxorubicin, 24 hours after doxorubicin", "value": "equivalent to the effect of Fer-1"}, {"measurement": "lipid peroxide level (MDA) in cardiomyocytes", "setting": "Primary cardiomyocytes [12]; Fer-1 50 µM added 1 hour before 2 μM doxorubicin, collected 24 hours after doxorubicin", "value": "equivalent to the effect of Fer-1"}]}
